Results from patent US10023836B2, “Medium for yeasts” (YAMAGUCHI UNIVERSITY, priority 2012, dated 2018).

Legend:
[1] = tested on: Saccharomyces cerevisiae RAK3599 strain; experiment: SynAA culture medium: elimination of single components and inorganic ion concentration; format: cell-based; conditions: for essentiality for increasing proliferation: one component of the vitamin mix eliminated from SynAA culture medium
Procedure: (§1) In a case where no special provisions are made, a procedure for a cultivation experiment using the culture medium to be investigated for proliferation was such that a yeast undergoing investigation was pre-cultured in a YPD liquid culture medium at 28° C. for 24 hours, after which the yeast was adjusted such that OD600=20. […] In addition, OD600 was measured every 15 minutes by a spectrophotometer (Cell density meter co8000, WPA). Hereafter, data is represented by graphs for a case using the automatic spectrophotometer; however, these graphs are primarily used to compare the slope of logarithmic growth phase proliferation curves for each culture medium, and because OD600 is measured without dilution, values where OD600=3 to 3.5 or more may be incorrect.
Culture mediums were prepared in which one component each of the components configuring the inorganic ion mix was eliminated from the SynAA culture medium, and OD600 was measured. […] Thereafter, an investigation specifically of inorganic ion concentration was conducted. […] An investigation was conducted using RAK3599 strain (hereafter, simply referred to as “RAK3599 strain”), which is a strain of Saccharomyces cerevisiae not having a particular nutritional requirement. Where no subsequent special provisions were made, proliferation was investigated by performing roller tube culture for an appropriate amount of time at 28° C. and measuring OD600.
MgSO4 concentration in the SynAA culture mediums was adjusted to 0%, 0.0001%, 0.001%, 0.01%, 0.1%, and 1%, respectively, and proliferation of the RAK3599 strain was investigated. […] Next, MgCl2 concentration in the SynAA culture mediums was adjusted to 0.001%, 0.01%, 0.1%, and 1%, respectively, and proliferation of the RAK3599 strain was investigated.
A culture medium was prepared in which one component each of the components configuring the vitamin mix was eliminated from the SynAA culture medium, with the SynAA culture medium as the control, and proliferation of the RAK3599 strain was investigated.

RAK3599 strain [2] = experiment: Vitamin and FeCl3 concentration in AKD′ culture medium (FIGS. 22 to 28); format: cell-based, Saccharomyces cerevisiae; conditions: AKD′ culture medium
Procedure: as §1
Pyridoxine concentration in the AKD′ culture medium was adjusted to 0, 0.004, 0.04, 0.4, 4, and 40 μg/mL, respectively, and proliferation of the RAK3599 strain was investigated.
Pantothenic acid concentration in the AKD′ culture medium was adjusted to 0, 0.004, 0.04, 0.4, 4, and 40 μg/mL, respectively, and proliferation of the RAK3599 strain was investigated.
Thiamine concentration in the AKD′ culture medium was adjusted to 0, 0.004, 0.04, 0.4, 4, and 40 μg/mL, respectively, and proliferation of the RAK3599 strain was investigated.
Nicotinic acid concentration in the AKD′ culture medium was adjusted to 0, 0.004, 0.04, 0.4, 4, and 40 μg/mL, respectively, and proliferation of the RAK3599 strain was investigated.
Myo-inositol concentration in the AKD′ culture medium was adjusted to 0, 0.02 μg/mL, 0.2 μg/mL, 2 μg/mL, 20 μg/mL, and 200 μg/mL, respectively, and proliferation of the RAK 3599 strain was investigated.
FeCl3 concentration in the AKD′ culture medium was adjusted to 0, 0.002, 0.02, 0.2, 2, and 20 μg/mL, respectively, and proliferation of the RAK3599 strain was investigated.

RAK2683 yeast strain = experiment: Investigation of nitrogen source used singly in MM culture medium instead of ammonium sulfate (Table 4); format: cell-based, Saccharomyces cerevisiae; conditions: Table 4 conditions
RAK3599 strain [3] = experiment: Investigation with AID and aY-AID culture medium (FIGS. 29 to 39); format: cell-based, Saccharomyces cerevisiae
Procedure: As shown in the following, an investigation was conducted into concentrations of each amino acid and a substitution potential of pantothenic acid for the amino acid in the AID culture medium. A suitable YPD culture medium was used as a control.
Next, the amino acids asparagine, isoleucine, phenylalanine, and valine were each adjusted to a culture medium additive concentration of […], 0.0312%, 0.0625%, 0.1250%, and 0.2500%, and OD600 was measured after 24 hours.
Isoleucine concentration in the aY-AID culture medium was adjusted to 0, 0.01 mg/mL, 0.1 mg/mL, 0.5 mg/mL, and 1 mg/mL, respectively, and proliferation of the RAK3599 strain was investigated.
Phenylalanine concentration in the aY-AID culture medium was adjusted to 0, 0.01, 0.1, 0.5, and 1 mg/mL, respectively, and proliferation of the RAK3599 strain was investigated.
Valine concentration in the aY-AID culture medium was adjusted to 0, 0.01, 0.1, 0.5, and 1 mg/mL, respectively, and proliferation of the RAK3599 strain was investigated.
Serine concentration in the AID culture medium was adjusted to 0, 0.01 mg/mL, 0.1 mg/mL, 0.5 mg/mL, and 1 mg/mL, respectively, and proliferation of the RAK3599 strain was investigated.
Threonine concentration in the AID culture medium was adjusted to 0, 0.01, 0.1, 0.5, and 1 mg/mL, respectively, and proliferation of the RAK3599 strain was investigated.
Asparagine concentration in the AID culture medium was adjusted to 0, 0.01, 0.1, 0.5, and 1 mg/mL, respectively, and proliferation of the RAK3599 strain was investigated.
An investigation was conducted into vitamins contained in the AID culture medium. […]

With O=P([O-])(O)O.[K+] [KH2PO4, potassium dihydrogen phosphate] the “proliferation when the component is not added” value [1] was “extremely low proliferation”.
For [Cl][Fe]([Cl])[Cl] [FeCl3, Anhydrous ferric (III) chloride], the preferred concentration (RAK3599 strain [2]) was “around 4000 μg/L”, the “OD600 after 24 hours” value (RAK3599 strain [2]; FeCl3 0 μg/mL) was 10 and the “OD600 after 24 hours” value (RAK3599 strain [2]; FeCl3 0.002 μg/mL) was 9. The “OD600 after 24 hours” value (RAK3599 strain [2]; FeCl3 0.02 μg/mL) was 11, the “OD600 after 24 hours” value (RAK3599 strain [2]; FeCl3 0.2 μg/mL) was 10 and the “OD600 after 24 hours” value (RAK3599 strain [2]; FeCl3 2 μg/mL) was 13. The “OD600 after 24 hours” value (RAK3599 strain [2]; FeCl3 20 μg/mL) was 14.
In the case of Cc1cc2nc3c(=O)[nH]c(=O)nc-3n(C[C@H](O)[C@H](O)[C@H](O)CO)c2cc1C [riboflavin], the “essentiality for increasing proliferation” value [1] is reported as “not be essential components”.
For O=P([O-])(O)O.[Na+] [NaH2PO4], the proliferation ([1]; 0.1% added to SynAA culture medium instead of KH2PO4, after 20 hours) was “proliferation had not occurred”.
With Cl.NCCCC[C@H](N)C(=O)O [Lysine, L-Lysine hydrochloride] the “proliferation when added singly as nitrogen source” value (RAK2683 yeast strain) was “almost no proliferation”.
[Cl-].[K+] [KCl, potassium chloride] was tested, and the proliferation ([1]; 0.1% added after 20 hours to SynAA culture medium with NaH2PO4 instead of KH2PO4) was “proliferation began”.
N[C@@H](CO)C(=O)O [Serine, L-Serine] was tested, and the “content at which proliferation particularly increased” value (RAK3599 strain [3]; AID culture medium) was “around 0.5 mg/mL”, the “effect on proliferation when added at high concentrations” value (RAK3599 strain [3]; AID culture medium, up to 1% or up to 0.2500%) was “a positive influence was imparted to proliferation” and the “preferred concentration / content” value (RAK3599 strain [3]; AID or aY-AID culture medium) was “around 0.5 g/L”.
In the case of Cl.N [Ammonium chloride], the “proliferation when added singly as nitrogen source” value (RAK2683 yeast strain) is reported as “did not, as a whole, exhibit favorable proliferation”.
With OB(O)O [boric acid] the “essentiality for increasing proliferation” value [1] was “not be essential components”.
For Nc1ccc(C(=O)O)cc1 [para-aminobenzoic acid], the effect on proliferation (RAK3599 strain [3]; vitamins contained in the AID culture medium (FIG. 38)) was “no effect to particularly increase proliferation”.
